According to article PMC5222342, “Leukotriene B₄ Metabolism and p70S6 Kinase 1 Inhibitors: PF-4708671 but Not LY2584702 Inhibits CYP4F3A and the ω-Oxidation of Leukotriene B₄ In Vitro and In Cellulo” (PLoS ONE, 2017):

Key:
CYP4F3A [1] = target: T1, CYP4F3A (Homo sapiens, UniProt Q08477); design: gene CYP4F3
T1 sequence (Q08477 1-520): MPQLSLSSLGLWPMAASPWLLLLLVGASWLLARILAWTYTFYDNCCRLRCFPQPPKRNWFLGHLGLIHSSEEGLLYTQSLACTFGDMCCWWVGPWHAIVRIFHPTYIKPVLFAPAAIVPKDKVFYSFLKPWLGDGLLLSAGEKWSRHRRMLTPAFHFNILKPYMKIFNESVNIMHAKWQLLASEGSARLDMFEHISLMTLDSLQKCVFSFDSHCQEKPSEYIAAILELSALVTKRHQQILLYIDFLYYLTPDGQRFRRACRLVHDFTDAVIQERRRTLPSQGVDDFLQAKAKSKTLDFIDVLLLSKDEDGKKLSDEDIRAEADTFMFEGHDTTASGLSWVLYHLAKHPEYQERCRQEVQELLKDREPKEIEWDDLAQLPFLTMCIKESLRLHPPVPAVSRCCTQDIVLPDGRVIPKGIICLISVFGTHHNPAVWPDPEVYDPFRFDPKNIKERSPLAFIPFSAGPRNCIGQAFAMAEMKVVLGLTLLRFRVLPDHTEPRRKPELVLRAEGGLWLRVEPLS

CYP4F3A [2] = target: T1, CYP4F3A; test: recombinant CYP4F3A LTB4 omega-oxidation assay, HPLC; Michaelis-Menten and Lineweaver-Burk kinetics; format: biochemical; design: gene CYP4F3; human recombinant CYP4F3A

Row | Structure (SMILES) | omega-oxidation of LTB4 (1-20 uM) by recombinant CYP4F3A, HPLC, Michaelis-Menten (CYP4F3A [1]) | IC50 (CYP4F3A [2]) [nM]
1 | CCCCC/C=C\C[C@@H](O)/C=C/C=C/C=C\[C@@H](O)CCCC(=O)O [LTB4] | Human recombinant CYP4F3A was incubated with increasing concentrations of PF-4708671 before the addition of LTB4 at different concentrations | –
2 | CCc1cncnc1N1CCN(Cc2nc3cc(C(F)(F)F)ccc3[nH]2)CC1 [PF-4708671] | – | ~750
